Test results published in US20030215817A1, “Modulation of gene expression in formation of fatty atherosclerotic lesions” (priority 2003, published 2003).
Counter-ions that a name gives are not always drawn.

Columns and labels:
[1] = system: REC1_8 (MspI CCCG 243) mRNA; assay: quantified RT-PCR, Rec1_8; format: in vivo, rabbit; conditions: for Relative Abundance Rec1_8, 20 pg F: hypercholesterolemic plus lercanidipine racemate, eight weeks, H2 (normocholesterolemic)=1.0
Method: (§1) Nineteen of the isolated DST clones were further validated using RT-PCR analyses; the data are presented in FIGS. 6-24 and in Tables 5-23, below. For each DST examined, the optimal annealing temperature and reagent conditions were determined for the corresponding set of primers (see Table 25) based on results from a preliminary experiment. In eight separate reactions, each set of primers was assayed to find the optimal conditions by adjusting the following four parameters: primer concentration, dNTP concentration, MgCl2 concentration, and number of Taq polymerase units. Once optimal conditions were determined, each DST was run in duplicate multiple simultaneous reactions which usually included at least four dilutions of template (cDNA library), plus control reactions lacking template, and six sequential data points for numbers of cycles.
(§2) Reactions were performed using “Hot Start” PCR with the Clontech TaqStart antibody system (Cat. #5400-1). Each reaction contained 1 ml of the cDNA library dilution as template, determined amounts of AmpliTaq DNA polymerase (cat. #N808-0156), MgCl2, dNTPs (GibcoBRL cat. #10297-018), primer, and Clontech TaqStart Antibody in a 20 ml final reaction volume using 10×Taq buffer II (without MgCl2). Typically, a master mix containing all components except the template was prepared and aliquoted. Various templates were then added to these master mix samples and 20 ml volumes were subsequently dispensed into individual reaction tubes. At various times during the PCR run, tubes were removed sequentially on a predetermined schedule in order to quantitate expression of the target DST over a “window” of cycle times. After amplification, the samples were quantified via fluorimetry.
(§3) PCR was performed at annealing temperatures that were five degrees above the average melting temperature of each primer pair. For primers greater than 10 bases (in a 0.05M salt solution), melting temperature was calculated using the following formula: Tm=59.9+41[% GC]−[675/Primer Length], where %GC is the decimal value. Following determination of the average melting temperature of the primer pair, the annealing temperature was determined by adding five degrees to the average melting temperature. PCR was performed using the following program: 1) 95 degrees Celsius, 3 minutes; 2) 95 degrees Celsius, 30 seconds; 3) TM+5 degrees Celsius, 30 seconds; 4) 72 degrees Celsius, for a time dependent on target length at 16 bp/second; 5) repeat steps 2-4 33 more cycles; 6) 72 degrees Celsius, 3 minutes; 7) 14 degrees Celsius, forever.
(§4) Following temperature cycling, 2 ml of the PCR reaction was added to 140 ml of a 1:280 dilution of PicoGreen (Molecular Probes cat. #P-11495 (10×100 ml)) in TE pH 7.5 in a 96-well Costar UV microtiter plate (Fisher cat. #07-200623). The samples were mixed gently for 1.5 minutes and allowed to equilibrate at room temperature in the dark for 15 minutes. The concentration of the PCR products was quantified by fluorimetry using a PerSeptive Biosystems CytoFluor series 4000 multi-well plate reader.
Background fluorescence was determined by using duplicate control samples that were cycled with all reaction components except the template. The mean value from these duplicate background control samples was subtracted from the corresponding experimental values prior to analyzing results. The sensitivity of the PicoGreen dsDNA assay is reported to be 250 pg/ml (50 pg dsDNA in a […] assay volume) using a fluorescence microplate reader such as was used in these measurements. […]

[2] = system: Rec1_21 (TTCC 165) mRNA; assay: quantified RT-PCR, Rec1_21; format: in vivo, rabbit; conditions: for Relative Abundance Rec1_21, 20 pg F: hypercholesterolemic plus lercanidipine racemate, eight weeks, H2 (normocholesterolemic)=1.0
Method: as §1, §2, §3, §4
(§5) Background fluorescence was determined by using duplicate control samples that were cycled with all reaction components except the template. The mean value from these duplicate background control samples was subtracted from the corresponding experimental values prior to analyzing results. The sensitivity of the PicoGreen dsDNA assay is reported to be 250 pg/ml (50 pg dsDNA in a […] assay volume) using a fluorescence microplate reader such as was used in these measurements.
FIG. 20 is a graphical representation of the results of RT-PCR using 20 pg of clone REC1—21 template, in which the amount of PCR product (measured in arbitrary fluorescence units) is plotted against number of cycles, where polyA enriched mRNA was extracted from aortas or rabbits that were normocholesterolemic (filled diamonds, “H2”) and hypercholestrolemic plus lercanidipine racemate, eight weeks (filled squares, “F”).

[3] = system: LDL; conditions: Soma et al. 1998; cited from earlier work
[4] = in vivo studies (Soma 1998); cited from earlier work
[5] = system: Rec1_22 (TGGG 164) mRNA; assay: quantified RT-PCR, Rec1_22; format: in vivo, rabbit; conditions: for Relative Abundance Rec1_22, 20 pg D: hypercholesterolemic plus lercanidipine R (−), eight weeks, H2 (normocholesterolemic)=1.0
Method: as §1, §2, §3, §4, §5
FIG. 22 is a graphical representation of the results of RT-PCR using 20 pg of clone REC1—22 template, in which the amount of PCR product (measured in arbitrary fluorescence units) is plotted against number of cycles, where polyA enriched mRNA was extracted from aortas of rabbits that were normocholesterolemic (filled diamonds, “H2”) and hypercholesterolemic plus lercanidipine R (−), eight weeks (filled squares, “D”).

[6] = system: Rec1_24 (CCGG 232) mRNA; assay: quantified RT-PCR, Rec1_24; format: in vivo, rabbit; conditions: for Relative Abundance Rec1_24, 100 pg D: hypercholesterolemic plus lercanidipine R (−), eight weeks, H2 (normocholesterolemic)=1.0
Method: as §1, §2, §3, §4, §5
FIG. 23 is a graphical representation of the results of RT-PCR using 100 pg of clone REC1—24 template, in which the amount of PCR product (measured in arbitrary fluorescence units) is plotted against number of cycles, where polyA enriched mRNA was extracted from aortas of rabbits that were normocholesterolemic (filled diamonds, “H2”) and hypercholesterolemic plus lercanidipine R (−), eight weeks (filled squares, “D”).

[7] = (R)-enantiomer compared with the other enantiomer of lercanidipine; cited from earlier work
[8] = hypercholesterolemic animals receiving lercanidipine R (−) compared to normocholesterolemic animals

COC(=O)C1=C(C)NC(C)=C(C(=O)OC(C)(C)CN(C)CCC(c2ccccc2)c2ccccc2)C1c1cccc([N+](=O)[O-])c1 (racemic) [lercanidipine, lercanidipine hydrochloride]
Relative Abundance Rec1_8, 20 pg F ([1]; cycle 26): 4.6
Relative Abundance Rec1_8, 20 pg F ([1]; cycle 28): 2.2
Relative Abundance Rec1_8, 20 pg F ([1]; cycle 30): 3.5
Relative Abundance Rec1_8, 20 pg F ([1]; cycle 32): 4.8
Relative Abundance Rec1_8, 20 pg F ([1]; cycle 34): 2.1
Relative Abundance Rec1_8, 20 pg F ([1]; cycle 36): 2.1
expression of Rec1_8 at 8 weeks (RT-PCR study), in words ([1]; hypercholesterolemic animals receiving lercanidipine racemate): elevated
Relative Abundance Rec1_21, 20 pg F ([2]; cycle 24): 0.0
Relative Abundance Rec1_21, 20 pg F ([2]; cycle 26): 0.0
Relative Abundance Rec1_21, 20 pg F ([2]; cycle 28): 0.0
Relative Abundance Rec1_21, 20 pg F ([2]; cycle 30): 0.1
Relative Abundance Rec1_21, 20 pg F ([2]; cycle 32): 0.1
Relative Abundance Rec1_21, 20 pg F ([2]; cycle 34): 0.3
expression of Rec1_21 at 8 weeks (RT-PCR study), in words ([2]; hypercholesterolemic animals receiving lercanidipine): substantially decreased
antioxidant for LDL in endothelial cell-mediated oxidation [3]: act as an antioxidant
carotid intimal hyperplasia [4]: inhibit

COC(=O)C1=C(C)NC(C)=C(C(=O)OC(C)(C)CN(C)CCC(c2ccccc2)c2ccccc2)[C@@H]1c1cccc([N+](=O)[O-])c1.Cl (single isomer, unassigned) [(R)-lercanidipine]
Relative Abundance Rec1_22, 20 pg D ([5]; cycle 26): 0.0
Relative Abundance Rec1_22, 20 pg D ([5]; cycle 28): 0.0
Relative Abundance Rec1_22, 20 pg D ([5]; cycle 30): 0.5
Relative Abundance Rec1_22, 20 pg D ([5]; cycle 32): 0.7
Relative Abundance Rec1_22, 20 pg D ([5]; cycle 34): 0.8
expression of Rec1_22 at 8 weeks (RT-PCR study), in words [5, 8]: decreased
Relative Abundance Rec1_24, 100 pg D ([6]; cycle 24): 0.3
Relative Abundance Rec1_24, 100 pg D ([6]; cycle 26): 0.5
Relative Abundance Rec1_24, 100 pg D ([6]; cycle 28): 0.7
Relative Abundance Rec1_24, 100 pg D ([6]; cycle 30): 0.9
Relative Abundance Rec1_24, 100 pg D ([6]; cycle 32): 0.9
Relative Abundance Rec1_24, 100 pg D ([6]; cycle 34): 1.1
expression of Rec1_24 at 8 weeks (RT-PCR study), in words [6, 8]: generally somewhat decreased
effectiveness in lowering blood pressure, less effective [7]: 2-3 orders of magnitude
